Laboratory results taken from patent US10350188B2, “Use of Neu1 sialidase inhibitors in the treatment of cancer” (priority 2011, dated 2019).
“And” between values parts separate entries of the source, which are not always exact repeats. Equal values may be shown once.

Tests used:
MDA MB-231 cells = assay: Cell viability of MDA MB-231 breast cancer cells in culture (MTT or WST-1, 72 hrs); type: cell-based, human; conditions: oseltamivir phosphate alone; MDA MB-231 (chemo-resistant); MTT or WST-1, 72 hrs
Method: (§1) MDA MB-231cells (ATCC® Number: HTB-26™) are human mammary gland breast adenocarcinoma derived from metastatic pleural effusion with epithelial morphology. MCF-7 (ATCC® Number: HTB-22™) are human mammary gland breast adenocarcinoma derived from metastatic pleural effusion with epithelial morphology.
(§2) All cells were grown at 37° C. in 5% CO2 in culture media containing Dulbecco's Modified Eagle Medium (DMEM) (Gibco, Rockville, Md.) supplemented with 10% fetal calf serum (FCS) (HyClone, Logan, Utah, USA).
(§3) MTT is a colorimetric assay for measuring the activity of enzymes that reduce MTT or closely related dyes (XTT, MTS, WSTs) to formazan dye, giving a purple color. A main application allows the assessment of the viability (cell counting) and the proliferation of cells (cell culture assays). It can also be used to determine cytotoxicity of potential medicinal agents and toxic materials, since those agents would stimulate or inhibit cell viability and growth. MTT (3-(4,5-Dimethylthiazol-2-yl)-2,5-diphenyltetrazolium bromide, a yellow tetrazole), is reduced to purple formazan in living cells. A solubilization solution (usually either dimethyl sulfoxide, an acidified ethanol solution, or a solution of the detergent sodium dodecyl sulphate in diluted hydrochloric acid) is added to dissolve the insoluble purple formazan product into a coloured solution. The absorbance of this coloured solution can be quantified by measuring at a certain wavelength (usually between 500 and 600 nm) by a spectrophotometer. The absorption maximum is dependent on the solvent employed.
(§4) WST-1 (Roche Applied Sciences, Montreal) is a ready-to-use substrate which measures the metabolic activity of viable cells. The WST-1 assay is nonradioactive and can be performed entirely in a microplate. It is suitable for measuring cell proliferation, cell viability or cytotoxicity. The assay is based on the reduction of WST-1 by viable cells. The reaction produces a soluble formazan salt. The procedure involves: Culturing the cells in a 96-well microplate, then incubating them with WST-1 for approx. 0.5-4 h. During this incubation period, viable cells convert WST-1 to a water-soluble formazan dye. Quantitating the formazan dye in the microplate is done with an ELISA plate reader. The absorbance directly correlates with the cell number.

[1] = tested on: PANC-1 human pancreatic cancer cells implanted in RAG1/Cγ double mutant NOD xenograft mice; assay: PANC-1 pancreatic cancer xenograft in RAG1/Cγ double mutant NOD mice; conditions: for Liver metastases % Inhibition: vs untreated day 79
Text: An immunodeficient mouse model with a double mutation in the combining recombinase activating gene-1 or -2 (RAG1 or RAG2) and common cytokine receptor γ chain (cγ) were used as xenograft mice. […] Mice deficient in both RAG2 and cγ (RAG2−/−/cγ−/−) were generated by inter-crossing and were maintained in SPF isolators in the Animal Care Facility, Queen's University, Kingston, Ontario K7L3N6, Canada. A colony was established in the animal facility. Mice deficient in both RAG1 and cγ (RAG1^−/−×cγ^−/−) on a non-obese diabetic (NOD) genetic background were obtained from the Jackson Laboratory (Bar Harbor, Me.) and a colony was established in the animal facility. All mice were kept under sterile conditions in micro-isolators or air-filtered cages, and were provided with autoclaved food and water. […] They were used between 6 and 8 weeks of age.
Puromycin-resistance eGFP transduced MiaPaCa-2 or PANC-1 cell clones were grown in 75 cm^2 cell culture flask at 80% confluence. The cells were resuspended into solution using TrypLE Express (Gibco) and washed with sterile saline. The cell suspension was centrifuged for 3 min at 900 rpm, and the cell pellet resuspended in sterile saline at a concentration of 5-10×10^6 cells/mL for 1-2×10^6 cells implantation into the right back flank of the mouse. Tumour measurements were taken twice a week. Tumour volumes were determined by (width square/2)×length.
The RAG1/Cγ double mutant xenograft mouse model was implanted with 2×10^6 PANC-1 cells in 0.2 mL in the right back flank.

A 2780cis cells = assay: Cell viability of A 2780cis ovarian cancer cells in culture (MTT or WST-1, 72 hrs); type: cell-based, human; conditions: oseltamivir phosphate alone; A 2780cis (chemo-resistant); MTT or WST-1, 72 hrs
Method: (§5) A-2780 cells are human ovarian cancer cell line which was established from tumor tissue from an untreated patient with adenocarcinoma. Cells grow as a monolayer and in suspension in spinner cultures.
as §2, §3, §4

MiaPaCa-2 cells = assay: Cell viability of MiaPaCa-2 pancreatic cancer cells in culture (MTT or WST-1, 72 hrs); type: cell-based, human
A 2780 cells = assay: Cell viability of A 2780 ovarian cancer cells in culture (MTT or WST-1, 72 hrs); type: cell-based, human; conditions: oseltamivir phosphate alone; A 2780 (chemo-sensitive); MTT or WST-1, 72 hrs
Method: as §5, §2, §3, §4

MCF-7 cells = assay: Cell viability of MCF-7 breast cancer cells in culture (MTT or WST-1, 72 hrs); type: cell-based, human; conditions: oseltamivir phosphate alone; MCF-7 (chemo-sensitive); MTT or WST-1, 72 hrs
Method: as §1, §2, §3, §4

BxPC-3 cells = assay: Cell viability of BxPC-3 pancreatic cancer cells in culture (MTT or WST-1, 72 hrs); type: cell-based, human; conditions: oseltamivir phosphate alone; BxPC-3 (chemo-resistant); MTT or WST-1, 72 hrs
PANC-1 cells = assay: Cell viability of PANC-1 pancreatic cancer cells in culture (MTT or WST-1, 72 hrs); type: cell-based, human
[2] = tested on: MiaPaCa-2-eGFP pancreatic cancer cells implanted in RAG2/Cγ double mutant Balbc xenograft mice; assay: MiaPaCa-2-eGFP pancreatic cancer xenograft in RAG2/Cγ double mutant Balbc mice; type: in vivo, mouse
Method: Tumour measurements were taken twice a week.
MiaPaCa-2-eGFP pancreatic cancer cells at 1.5×10^6 in 0.2 mL were implanted subcutaneously in the right back flank of these mice. Each mouse in the study was identified by an ear punch number. Twice a week each mouse following implantation of the cancer cells was monitored for tumour volume growth (length and width) at the site of implantation, body weights, and body condition scoring. Scoring the body condition of rodents is a non-invasive method for assessing health and establishing endpoints for adults where body weight is not a viable monitoring tool, such as with tumour models. Body condition scores (BC) range from 1(emaciation) to 5 (obesity). An anticipated BCS of 2—under conditioned—or lower, requires justification in the protocol. Scores are determined by frequent visual and hands-on examination of each animal. The hands-on evaluation is done by gently holding the mouse by the base of the tail and passing a finger over the sacroiliac bones. The findings are matched to the descriptions and diagrams of BC ranges to determine a score. Scores are documented for each animal.

Capan-1 cells = assay: Cell viability of Capan-1 pancreatic metastatic cancer cells in culture (MTT or WST-1, 72 hrs); type: cell-based, human; conditions: oseltamivir phosphate alone; Capan-1 (chemo-sensitive); MTT or WST-1, 72 hrs
Method: CAPAN-1 cells (ATCC® Number: HTB-79™) are human pancreatic cancer cell line with epithelial morphology expressing the 17 beta-estradiol (E2)-binding estrogen receptor and derived from metastatic liver with adenocarcinoma.
as §2, §3, §4

[3] = day 84, oseltamivir phosphate 2 mg/kg daily, alone or with Abraxane 0.5 / Gemcitabine 30 mg/kg
[4] = day 84, oseltamivir phosphate 5 mg/kg daily, alone or with Abraxane 0.5 / Gemcitabine 30 mg/kg
[5] = day 93, oseltamivir phosphate 2 mg/kg daily, alone or with Gemcitabine 30 mg/kg
[6] = day 93, oseltamivir phosphate 5 mg/kg daily, alone or with Gemcitabine 30 mg/kg
[7] = oseltamivir phosphate 2 mg/kg, alone day 90, with abraxane 0.5 day 78, with gemcitabine 30 day 110
[8] = oseltamivir phosphate analogues (TD), WST-1, 72 hrs

## CCOC(=O)C1=C[C@@H](OC(CC)CC)[C@H](NC(C)=O)[C@@H](N)C1 [oseltamivir phosphate]
MDA MB-231 cells
  LD50: 0.6 µM
[1]; day 79, oseltamivir phosphate 2 mg/kg daily, alone or with Abraxane 0.5 / Gemcitabine 30 mg/kg
  % Inhibition To untreated: 35% (n.s.)
[1]; day 79, oseltamivir phosphate 2 mg/kg i.p. daily, alone or with Abraxane 0.5 / Gemcitabine 30 mg/kg
  Tumour volume: 901 ± 104 (5) mm^3
[1]; day 79, oseltamivir phosphate 5 mg/kg daily, alone or with Abraxane 0.5 / Gemcitabine 30 mg/kg
  % Inhibition To untreated: 31% (n.s.)
[1]; day 79, oseltamivir phosphate 5 mg/kg i.p. daily, alone or with Abraxane 0.5 / Gemcitabine 30 mg/kg
  Tumour volume: 956 ± 345 (4) mm^3
[1]; [3]
  % Inhibition To untreated: 22% (n.s.)
  Tumour volume: 1079 ± 91 (5) mm^3
[1]; [4]
  % Inhibition To untreated: 5% (n.s.)
  Tumour volume: 1321 ± 503 (4) mm^3
[1]; [5]
  % Inhibition To untreated: 0% (n.s.)
  Tumour volume: 1554 ± 469 (2) mm^3
[1]; [6]
  % Inhibition To untreated: 0% (n.s.)
  Tumour volume: 1406 ± 471 (2) mm^3
[1]; oseltamivir phosphate 2 mg/kg, alone day 90, with abraxane 0.5 mg/kg day 78, with gemcitabine 30 mg/kg day 110
  Liver metastases (ave number of nodules): 26
[1]; [7]
  Metastases (size, mm): 0.2-1.3 mm
  Liver metastases % Inhibition: 38%
[1]; oseltamivir phosphate 5 mg/kg, alone day 90, with abraxane 0.5 mg/kg day 90, with gemcitabine 30 mg/kg day 109
  Liver metastases (ave number of nodules): 21
[1]; oseltamivir phosphate 5 mg/kg, alone day 90, with abraxane 0.5 day 90, with gemcitabine 30 day 109
  Liver metastases % Inhibition: 50%
[1]; oseltamivir phosphate 2 and 5 mg/kg, Abraxane 0.5 mg/kg, gemcitabine 30 mg/kg, alone or combined, untreated control day 80
  Survival of tumour bearing mice: 91 days and 94 days
A 2780cis cells
  LD50: 1.0 µM
MiaPaCa-2 cells; oseltamivir phosphate alone, MiaPaCa (chemo-resistant), MTT or WST-1, 72 hrs
  LD50: 850 µM
MiaPaCa-2 cells; [8]
  LD50 MiaPaCa-2: 850 µM
A 2780 cells
  LD50: 1.5 µM
MCF-7 cells
  LD50: >3 µM
BxPC-3 cells
  LD50: 975 µM
PANC-1 cells; oseltamivir phosphate alone, PANC-1 (chemo-resistant), MTT or WST-1, 72 hrs
  LD50: 1462 µM
PANC-1 cells; [8]
  LD50 PANC-1: 1462 µM
[2]; Table 8 study, day 46, 50 mg/kg, vs untreated
  % Inhibition (tumour volume): 60.4%
[2]; Table 8 study, day 46, 100 mg/kg, vs untreated
  % Inhibition (tumour volume): 61.0%
[2]; Table 8 study, day 46, 200 mg/kg, vs untreated
  % Inhibition (tumour volume): 58.5%
[2]; Table 8 study, day 46 post implantation, oseltamivir phosphate 50 mg/kg
  Tumour volume: 368 ± 38 (4) mm^3
[2]; Table 8 study, day 46 post implantation, oseltamivir phosphate 100 mg/kg
  Tumour volume: 362 ± 62 (4) mm^3
[2]; Table 8 study, day 46 post implantation, oseltamivir phosphate 200 mg/kg
  Tumour volume: 386 ± 88 (4) mm^3
[2]; day 48, 2 mg/kg i.p., vs untreated
  % Inhibition (tumour volume): 61.7%
[2]; day 48, 10 mg/kg i.p., vs untreated
  % Inhibition (tumour volume): 71.5%
[2]; day 48, 50 mg/kg i.p., vs untreated
  % Inhibition (tumour volume): 60.3%
[2]; day 48, 100 mg/kg i.p., vs untreated
  % Inhibition (tumour volume): 58.9%
[2]; day 48 post implantation, oseltamivir phosphate 2 mg/kg i.p.
  Tumour volume: 370 ± 88 (5) mm^3
[2]; day 48 post implantation, oseltamivir phosphate 10 mg/kg i.p.
  Tumour volume: 275 ± 71 (6) mm^3
[2]; day 48 post implantation, oseltamivir phosphate 50 mg/kg i.p.
  Tumour volume: 383 ± 71 (4) mm^3
[2]; day 48 post implantation, oseltamivir phosphate 100 mg/kg i.p.
  Tumour volume: 397 ± 57 (5) mm^3
[2]; day 61, 2 mg/kg i.p.
  % Inhibition (tumour volume): 34.1%
[2]; day 61, 10 mg/kg i.p.
  % Inhibition (tumour volume): 26.3%
[2]; day 61, 50 mg/kg i.p.
  % Inhibition (tumour volume): 32.4%
[2]; day 61, 100 mg/kg i.p.
  % Inhibition (tumour volume): 27.4%
[2]; day 61 post implantation, oseltamivir phosphate 2 mg/kg i.p.
  Tumour volume: 636 ± 35 (2) mm^3
[2]; day 61 post implantation, oseltamivir phosphate 10 mg/kg i.p.
  Tumour volume: 711 ± 159 (5) mm^3
[2]; day 61 post implantation, oseltamivir phosphate 50 mg/kg i.p.
  Tumour volume: 652 ± 173 (3) mm^3
[2]; day 61 post implantation, oseltamivir phosphate 100 mg/kg i.p.
  Tumour volume: 701 ± 201 (3) mm^3
[2]; oseltamivir phosphate 2, 10, 50 and 100 mg/kg i.p. from day 40 post implantation, vs untreated
  Reduction of tumour growth in time-to-progression: over 50%
Capan-1 cells
  LD50: 2 µM
